Assay results from ChEMBL document CHEMBL4613325, “Design of Development Candidate eFT226, a First in Class Inhibitor of Eukaryotic Initiation Factor 4A RNA Helicase” (J Med Chem, 2020).
Calls of active or inactive are those of the source. No cut-off for these calls is given here.

Columns and labels:
[1] = physchem
[2] = target: T1, Eukaryotic initiation factor 4A-I (Homo sapiens, UniProt P60842); test: Inhibition of eIF4A1 in human MDA-MB-231 cells assessed as inhibition of cellular-translation incubated for 4 hrs by specific tandem sequence motif repeat CCGCCG in 5'- UTR containing luciferase reporter gene assay; format: cell-based
[3] = target: T1, Eukaryotic initiation factor 4A-I; test: Inhibition of eIF4A1 in human MDA-MB-231 cells assessed as inhibition of cellular-translation incubated for 4 hrs by specific tandem sequence motif repeat CAACAA in 5'- UTR containing luciferase reporter gene assay; format: cell-based
[4] = target: T1, Eukaryotic initiation factor 4A-I; test: Inhibition of eIF4A1 in human MDA-MB-231 cells assessed as inhibition of cellular-translation incubated for 4 hrs by specific tandem sequence motif repeat AGAGAG in 5'- UTR containing luciferase reporter gene assay; format: cell-based
[5] = target: T1, Eukaryotic initiation factor 4A-I; test: Inhibition of eIF4A1 in human MDA-MB-231 cells assessed as inhibition of cellular-translation incubated for 4 hrs by specific tandem sequence motif repeat GGCGGC in 5'- UTR containing luciferase reporter gene assay; format: cell-based
[6] = target: T1, Eukaryotic initiation factor 4A-I; test: Binding affinity to full length recombinant eIF4A1 (unknown origin) assessed as induction ternary complex formation in presence of DNA oligo sequences by measuring Kd for DNA oligo sequences + ATP complex formation SPR assay
[7] = target: T1, Eukaryotic initiation factor 4A-I; test: Inhibition of eIF4A1 in human HAP1 cells assessed as reduction in MCL-1 protein expression at 5 to 50 nM incubated for 24 hrs by Western blot analysis; format: cell-based
[8] = tested on: HAP1; test: Inhibition of eIF4A1 F163L mutant in human HAP1 cells assessed as reduction in Cyclin D1 protein expression at 5 to 50 nM incubated for 24 hrs by Western blot analysis; format: cell-based
[9] = target: T1, Eukaryotic initiation factor 4A-I; test: Binding affinity to full length recombinant eIF4A1 (unknown origin) assessed as induction ternary complex formation in presence of AGAGAG by measuring half life for AGAGAG + AMP-PNP complex formation SPR assay
[10] = tested on: MDA-MB-231; test: Induction of apoptosis in human MDA-MB-231 cells assessed as increase in dead cells level incubated for 24 hrs by annexin V and propidium iodide staining based flow cyclometry; format: functional, cell-based
[11] = target: T1, Eukaryotic initiation factor 4A-I; test: Inhibition of eIF4A1 in human HAP1 cells assessed as reduction in c-MYC protein expression at 5 to 50 nM incubated for 24 hrs by Western blot analysis; format: cell-based
[12] = tested on: HAP1; test: Inhibition of eIF4A1 F163L mutant in human HAP1 cells assessed as reduction in c-MYC protein expression at 5 to 50 nM incubated for 24 hrs by Western blot analysis; format: cell-based
[13] = organism: Homo sapiens; test: Inhibition of L-type calcium channel diltiazem binding site (unknown origin) at 10 uM relative to control
[14] = target: T1, Eukaryotic initiation factor 4A-I; test: Binding affinity to full length recombinant eIF4A1 (unknown origin) assessed as induction ternary complex formation in presence of AGAGAG by measuring half life for AGAGAG + ATP complex formation SPR assay
[15] = target: T1, Eukaryotic initiation factor 4A-I; test: Inhibition of eIF4A1 in human MDA-MB-231 cells assessed as reduction in BCL2 protein expression at 10 to 100 nM incubated for 24 hrs by Western blot analysis; format: cell-based
[16] = target: T1, Eukaryotic initiation factor 4A-I; test: Inhibition of eIF4A1 in human HAP1 cells assessed as reduction in Cyclin D1 protein expression at 5 to 50 nM incubated for 24 hrs by Western blot analysis; format: cell-based
[17] = target: T1, Eukaryotic initiation factor 4A-I; test: Inhibition of eIF4A1 in human MDA-MB-231 cells assessed as reduction in cyclin D1 protein expression at 10 to 100 nM incubated for 24 hrs by Western blot analysis; format: cell-based
[18] = tested on: MDA-MB-231; test: Induction of apoptosis in human MDA-MB-231 cells assessed as increase in apoptotic cells level incubated for 24 hrs by annexin V and propidium iodide staining based flow cyclometry; format: functional, cell-based
[19] = tested on: HAP1; test: Inhibition of eIF4A1 F163L mutant in human HAP1 cells assessed as reduction in MCL-1 protein expression at 5 to 50 nM incubated for 24 hrs by Western blot analysis; format: cell-based
[20] = tested on: MDA-MB-231; test: Induction of cell cycle arrest in human MDA-MB-231 cells assessed as increase in G2/M population incubated for 24 hrs by LIVE/DEAD fixable dead cell staining based flow cyclometry; format: functional
[21] = Apparent permeability from apical to basolateral side in human Caco2 cells at 10 uM by LC/MS/MS analysis
[22] = tested on: MDA-MB-231; test: Antiproliferative activity against human MDA-MB-231 cells assessed as reduction in cell proliferation incubated for 72 hrs by CellTiter-Glo reagent based assay; format: functional; conditions: MDA-MB-231, 72 h
[23] = Stability in human liver microsomes assessed as parent compound remaining at 1 uM pre-incubated for 10 mins before NADPH addition and measured after 30 mins by LC/MS/MS analysis; format: ADME, Microsome; conditions: read-out: Stability
[24] = target: hERG (KCNH2) (Homo sapiens, UniProt Q12809); test: Inhibition of human ERG at 10 uM by patch-clamp assay relative to control
[25] = Efflux ratio in human Caco2 cells at 10 uM by LC/MS/MS analysis
[26] = Stability in rat liver microsomes assessed as parent compound remaining at 1 uM pre-incubated for 10 mins before NADPH addition and measured after 30 mins by LC/MS/MS analysis; format: ADME, Microsome; conditions: read-out: Stability
[27] = Half life in iv dosed rat; format: ADME, organism-based; conditions: in vivo
[28] = AUC in iv dosed rat; format: ADME, organism-based; conditions: in vivo
[29] = Clearance in iv dosed rat; format: ADME, organism-based; conditions: in vivo
[30] = Volume of distribution at steady state in iv dosed rat; format: ADME, organism-based; conditions: in vivo, read-out: Vdss
[31] = target: Voltage-gated inwardly rectifying potassium channel KCNH2 (Homo sapiens, UniProt Q12809); test: Inhibition of human ERG by patch-clamp assay
Voltage-gated inwardly rectifying potassium channel KCNH2, sequence (Q12809 whole entry): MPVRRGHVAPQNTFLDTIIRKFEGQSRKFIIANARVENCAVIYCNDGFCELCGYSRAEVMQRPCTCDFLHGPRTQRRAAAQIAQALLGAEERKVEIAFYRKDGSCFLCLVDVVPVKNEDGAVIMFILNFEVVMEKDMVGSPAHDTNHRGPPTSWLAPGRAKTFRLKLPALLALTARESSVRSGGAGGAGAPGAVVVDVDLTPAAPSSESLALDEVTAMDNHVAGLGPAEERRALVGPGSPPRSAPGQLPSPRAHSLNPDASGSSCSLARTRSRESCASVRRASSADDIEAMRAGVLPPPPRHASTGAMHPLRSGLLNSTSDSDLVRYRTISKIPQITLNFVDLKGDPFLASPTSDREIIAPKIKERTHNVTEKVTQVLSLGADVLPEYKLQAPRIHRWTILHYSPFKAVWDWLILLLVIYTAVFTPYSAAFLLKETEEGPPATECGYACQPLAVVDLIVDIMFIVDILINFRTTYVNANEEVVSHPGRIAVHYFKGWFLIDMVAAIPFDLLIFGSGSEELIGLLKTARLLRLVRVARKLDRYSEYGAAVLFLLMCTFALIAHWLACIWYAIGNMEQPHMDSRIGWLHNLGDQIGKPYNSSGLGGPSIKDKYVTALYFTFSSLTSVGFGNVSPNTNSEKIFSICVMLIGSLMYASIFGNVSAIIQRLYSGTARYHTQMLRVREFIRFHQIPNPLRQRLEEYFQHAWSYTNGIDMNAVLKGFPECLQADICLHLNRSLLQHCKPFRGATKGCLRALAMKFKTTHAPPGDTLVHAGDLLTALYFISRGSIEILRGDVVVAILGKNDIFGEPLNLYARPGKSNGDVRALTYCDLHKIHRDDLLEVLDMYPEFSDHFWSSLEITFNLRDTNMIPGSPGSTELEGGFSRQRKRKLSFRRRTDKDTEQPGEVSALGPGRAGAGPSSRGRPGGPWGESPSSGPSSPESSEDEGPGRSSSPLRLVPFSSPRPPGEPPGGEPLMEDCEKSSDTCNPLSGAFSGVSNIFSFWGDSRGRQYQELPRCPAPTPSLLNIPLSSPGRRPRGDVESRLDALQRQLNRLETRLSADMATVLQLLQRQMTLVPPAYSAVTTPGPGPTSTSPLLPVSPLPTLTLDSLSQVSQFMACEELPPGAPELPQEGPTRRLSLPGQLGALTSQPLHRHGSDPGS

hERG (KCNH2), sequence (Q12809 whole entry): as above
T1 sequence (P60842 whole entry): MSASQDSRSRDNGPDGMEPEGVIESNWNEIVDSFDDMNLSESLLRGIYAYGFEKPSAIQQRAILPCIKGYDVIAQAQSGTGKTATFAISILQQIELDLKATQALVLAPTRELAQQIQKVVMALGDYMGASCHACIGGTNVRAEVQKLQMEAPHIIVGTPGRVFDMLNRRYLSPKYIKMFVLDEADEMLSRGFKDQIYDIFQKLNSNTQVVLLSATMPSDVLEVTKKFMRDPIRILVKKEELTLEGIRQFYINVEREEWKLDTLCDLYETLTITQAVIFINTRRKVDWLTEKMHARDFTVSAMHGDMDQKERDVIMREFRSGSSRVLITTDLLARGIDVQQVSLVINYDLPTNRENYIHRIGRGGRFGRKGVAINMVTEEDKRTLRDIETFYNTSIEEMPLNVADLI

SMILES | Papp A→B at 10 µM ([21]; Caco-2) | IC50 [22] | remaining at 0.5 h, 1 µM [23] | inhibition at 10 µM [24] | efflux ratio at 10 µM ([25]; Caco-2) | remaining at 0.5 h, 1 µM [26] | also measured
COc1cncc2c1[C@]1(O)[C@H](O)[C@H](C(=O)N(C)C)[C@@H](c3ccccc3)[C@]1(c1ccc(C#N)cc1)O2.Cl | – | – | – | – | – | – | solubility thermodynamic [1]: 0.22 mg/mL
C[C@H]1C[C@@]2(O[C@H]3C[C@H]4[C@@H]5CC[C@H]6C[C@H](O)CC[C@]6(C)[C@H]5[C@@H](O)C[C@]4(C)[C@H]3[C@@]2(C)O)OC1(C)C [HIPPURISTANOL] | – | – | – | – | – | – | IC50 [2]: 210 nM; IC50 [3]: 204 nM; IC50 [4]: 426 nM; IC50 [5]: 369 nM
COc1cc2c(c(OC)n1)[C@]1(O)[C@H](O)[C@H](CN(C)C)[C@@H](c3ccccc3)[C@]1(c1ccc(C#N)cc1)O2 | – | – | – | – | – | – | Activity [6]: inactive; inhibition [7]: Dose-dependent effect; inhibition [8]: inactive; T1/2 [9]: 0.642 h; inhibition [2]: Dose-dependent effect; Activity [10]: Dose-dependent effect; inhibition [11]: Dose-dependent effect; inhibition [12]: inactive; inhibition [13]: 54%; T1/2 [14]: 1.32 min; inhibition [3]: Dose-dependent effect; inhibition [15]: Active; inhibition [4]: Dose-dependent effect; inhibition [16]: Dose-dependent effect; inhibition [5]: Dose-dependent effect; inhibition [17]: Active; Activity [18]: Dose-dependent effect; inhibition [19]: inactive; Activity [20]: Dose-dependent effect
CCN(CC)C[C@H]1[C@@H](O)[C@@]2(O)c3c(OC)cncc3O[C@@]2(c2ccc(C#N)cc2)[C@@H]1c1ccccc1 | 0.3 ×10⁻⁶ cm/s | 62 nM | 73% | 40% | 35 | 76% | –
COc1nc(C#N)cc2c1[C@]1(O)[C@H](O)[C@H](CN(C)C)[C@@H](c3ccccc3)[C@]1(c1ccc(C#N)cc1)O2 | – | 15 nM | – | – | – | – | half-life [27]: 11 h; AUC [28]: 730 ng·h/mL; clearance [29]: 26 mL/min/kg; Vd [30]: 10.3 L/kg
COc1cc2c(c(OC)n1)[C@]1(O)[C@H](O)[C@H](CN(C)C)[C@@H](c3ccccc3)[C@]1(c1ccc(C#N)cc1)O2.Cl | – | – | – | – | – | – | solubility thermodynamic [1]: > 20 mg/mL
C[C@@H]1C[C@@H]([C@H](O)CC2CC(=O)NC(=O)C2)C(=O)[C@@H](C)C1 [CYCLOHEXIMIDE] | – | – | – | – | – | – | IC50 [2]: 87 nM; IC50 [3]: 142 nM; IC50 [4]: 226 nM; IC50 [5]: 101 nM
COc1cncc2c1[C@]1(O)[C@H](O)[C@H](CN(C)CC(F)F)[C@@H](c3ccccc3)[C@]1(c1ccc(C#N)cc1)O2 | 2.6 ×10⁻⁶ cm/s | 250 nM | 1% | 11% | 3.2 | < 1% | –
CNC[C@H]1[C@@H](O)[C@@]2(O)c3c(OC)cncc3O[C@@]2(c2ccc(C#N)cc2)[C@@H]1c1ccccc1 (racemic) | – | 482 nM | 98% | < 10% | – | 90% | Papp A→B at 10 µM ([21]; Caco-2, Papp): 0.3 ×10⁻⁶ cm/s; efflux ratio at 10 µM ([25]; Caco-2, Ratio): 3.9
COc1cncc2c1[C@]1(O)[C@H](O)[C@H](CN(C)C)[C@@H](c3ccccc3)[C@]1(c1ccc(C#N)cc1)O2.Cl | – | – | – | – | – | – | solubility thermodynamic [1]: > 20 mg/mL
COc1cncc2c1[C@]1(O)[C@H](O)[C@H](CCN(C)C)[C@@H](c3ccccc3)[C@]1(c1ccc(C#N)cc1)O2 (racemic) | 0.1 ×10⁻⁶ cm/s | 143 nM | 75% | 11% | 27 | 77% | –
COc1cncc2c1[C@]1(O)[C@H](O)[C@H](CN)[C@@H](c3ccccc3)[C@]1(c1ccc(C#N)cc1)O2 (racemic) | 0.11 ×10⁻⁶ cm/s | 211 nM | 106% | 11% | 4 | 104% | –
COc1cncc2c1[C@]1(O)[C@H](O)[C@H](CN3CCOCC3)[C@@H](c3ccccc3)[C@]1(c1ccc(C#N)cc1)O2 | – | 121 nM | 40% | < 10% | – | 52% | Papp A→B at 10 µM ([21]; Caco-2, Papp): 1.5 ×10⁻⁶ cm/s; efflux ratio at 10 µM ([25]; Caco-2, Ratio): 5.3
COc1cncc2c1[C@]1(O)[C@H](O)[C@H](C(=O)N(C)C)[C@@H](c3ccccc3)[C@]1(c1ccc(C#N)cc1)O2 | 0.65 ×10⁻⁶ cm/s | 33 nM | – | – | 5 | – | half-life [27]: 2 h; AUC [28]: 950 ng·h/mL; clearance [29]: 18 mL/min/kg; Vd [30]: 1.1 L/kg
COc1cncc2c1[C@]1(O)[C@H](O)[C@H](CN3CCC(F)(F)CC3)[C@@H](c3ccccc3)[C@]1(c1ccc(C#N)cc1)O2 | 4.8 ×10⁻⁶ cm/s | 158 nM | 45% | 30% | 1.7 | 42% | –
COc1cncc2c1[C@]1(O)[C@H](O)[C@H](CN(C)C(C)(C)C)[C@@H](c3ccccc3)[C@]1(c1ccc(C#N)cc1)O2 | 0.1 ×10⁻⁶ cm/s | 140 nM | 61% | 16% | 57 | 77% | –
COc1cncc2c1[C@]1(O)[C@H](O)[C@H](CN(C)C)[C@@H](c3ccccc3)[C@]1(c1ccc(C#N)cc1)O2 (stereo in doubt; (-)-37) | – | 54 nM | – | – | – | – | Papp A→B at 10 µM ([21]; Caco-2, Papp): 0.21 ×10⁻⁶ cm/s; half-life [27]: 2.9 h; IC50 [31]: > 10000 nM; efflux ratio at 10 µM ([25]; Caco-2, Ratio): 22; AUC [28]: 440 ng·h/mL; clearance [29]: 39 mL/min/kg; Vd [30]: 5.2 L/kg
